Test results reported in patent publication US8691863B2, “Use of active substance combinations having insecticidal properties for controlling animal pests from the stink bug family” (Bayer CropScience AG, priority 2007, dated 2014).

How the values were obtained:
[1] = test system: red-banded stink bug (Piezodorus guildinii); test: Caged soybean plot trial against red-banded stink bug, kill efficiency of the adults; format: in vivo; settings: application rate g a.i./ha: imidacloprid 70, (I-2) 24, mixture 72 + 24, methamidophos 480, tank mix with 0.1% a.i. methylated soya oil; for Kill efficiency as calculated by Abbott (%) 1 d: adults on soybean cv. CO-32, 1 day after spray treatment; for Kill efficiency as calculated by Abbott (%) 3 d: adults on soybean cv. CO-32, 3 days after spray treatment
Source text: (§1) The expected activity for a given combination of two active substances can be calculated as described by S. R. Colby, Weeds 15 (1967), 20-22, as follows:
(§2) If the actual insecticidal kill efficiency is greater than calculated, then the combination is superadditive in its kill efficiency, i.e. a synergistic effect is present. In this case, the kill efficiency actually observed must be greater than the value for the expected kill efficiency (E) calculated with the abovementioned formula.
(§3) After the desired period of time, the kill efficiency is determined in %. Here, 100% means that all animals have been killed; 0% means that no animals have been killed.
Plots approximately 1 m^2 in size, provided with cages and planted with soybean plants (Glycine max) cv. “CO-32” are treated in four replications against the red-banded stink bug (Piezodorus guildinii) using a pneumatically operated backpack sprayer. A mixture of the active substance (I-2) and imidacloprid (SC 480) is applied in comparison with the active substance (I-2) (SC 240) on its own and imidacloprid (SC 200) on its own at the application rates specified, as a tank mix with 0.1% a.i. methylated soya oil (EC 850). Methamidophos (SL 600) was tested concomitantly as commercially available standard. The water application rate is 300 l/ha. The evaluation is performed 1 and 3 days after the treatment by determining the kill efficiency of the adults.

[2] = test system: brown stink bug (Euschistus heros); test: Field trial on soybean plots against brown stink bug, kill efficiency of the nymphs; format: in vivo; settings: nymphs on soybean cv. BRS232, 14 days after spray treatment; application rate g a.i./ha: imidacloprid 72, (I-2) 24, mixture 72 + 24, methamidophos 480; tank mix with 0.1% a.i. methylated soya oil
Source text: as §1, §2, §3
Methamidophos (SL 600) was tested concomitantly as commercially available standard. The water application rate is 200 l/ha.

`O=[N+]([O-])/N=C1\NCCN1Cc1ccc(Cl)nc1` [Imidacloprid, imidacloprid] was tested, and the “Kill efficiency as calculated by Abbott (%) 1 d” value [1] was 65%, the “Kill efficiency as calculated by Abbott (%) 3 d” value [1] was 65% and the “Kill efficiency as calculated by Abbott (%) 14 d” value [2] was 21%.

With `COP(N)(=O)SC` (stereo not drawn) [Methamidophos] the “Kill efficiency as calculated by Abbott (%) 1 d” value [1] was 52.5%, the “Kill efficiency as calculated by Abbott (%) 3 d” value [1] was 87.5% and the “Kill efficiency as calculated by Abbott (%) 14 d” value [2] was 27%.
